This is an account of results in patent publication US5593970A, “Heterocyclic anthracycline analogs” (priority 1994, dated 1997).

What all share (assay): Microculture tetrazolium assay
What all share (assay type): cell-based

One assay has as its system SKOV3. The settings on record: Homo sapiens, SK-OV-3, SKOV3; read-out: IC50.
Another assay concerns SKVLB. The settings on record: for VLB/OV3: IC50 ratio SKVLB/SKOV3; for pIC50: SKVLB, read-out: IC50.
A further assay concerns T47D. Conditions: Homo sapiens.
The subject of a further assay is LOX. The settings on record: read-out: IC50.
The test system of the next assay is HT29. The settings on record: Homo sapiens, HT-29, HT29.

One may read the pIC50 as −log10 of the IC50, conventionally taken in molar units.

Structures are written as SMILES. pIC50: −log10 of the molar value. Where a name gives a salt, the structure may show the parent alone. Read-outs that look alike come from different tables or passages of the source.

Regarding `C[C@@H]1O[C@@H](O[C@H]2O[C@H](C(C)(F)F)CC3=C2C(=O)c2cc4ccccc4c(O)c2C3=O)C[C@H](O)[C@@H]1O` (mixture of isomers) [BCH-1662, (1'S,1S,3S) and (1'S,1R, 3R)-5,12-dioxo-3-(1,1-difluoroethyl)-6-hydroxy-1-(2',6'-dideoxy-L-lyxohexopyranose)-3,4,5,12-tetrahydroanthraceno-[2,3-c]-pyran], the negative logarithm of the IC50 (pIC50) in the assay on SKOV3 was 4.06; with SKVLB, 4.05; with T47D (read-out: IC50) it was 4.22; with LOX, 4.42; in the assay on HT29 (read-out: IC50) it was 4.10. For the same molecule, the VLB/OV3 with SKVLB worked out at 1.04.
For the molecule `C[C@@H]1O[C@@H](O[C@@H]2O[C@@H](C(C)(F)F)CC3=C2C(=O)c2cc4ccccc4c(O)c2C3=O)C[C@H](O)[C@@H]1O` (mixture of isomers) [BCH-1663, (1'S,1S,3S) and (1'S,1R, 3R)-5,12-dioxo-3-(1,1-difluoroethyl)-6-hydroxy-1-(2',6'-dideoxy-L-lyxohexopyranose)-3,4,5,12-tetrahydroanthraceno-[2,3-c]-pyran], the pIC50 was 4.55 with SKOV3; 4.49 in the assay on SKVLB; 4.32 in the assay on T47D (read-out: IC50); 4.51 in the assay with LOX; 4.50 in the assay with HT29 (read-out: IC50). The VLB/OV3 with SKVLB is reported as 1.16.
For `COCC1Cc2c(O)c3c(c(O)c2C(O[C@H]2C[C@H](N)[C@H](O)[C@H](C)O2)O1)C(=O)c1ccccc1C3=O` (mixture of isomers) [BCH-1992, (1'S,1S,3R) and (1'S,1R,3S)-5,12-dihydroxy-3-methoxymethyl-1-(2',3',6'-trideoxy-3'-amino-L-lyxohexopyranose)-1,2,3,4-tetrahydro-(2-oxygen)naphthacene-6,11-dione hydrochloride], the negative-log IC50 (pIC50) was 6.24 with SKOV3; 5.56 with SKVLB; 6.09 in the assay with T47D (read-out: IC50); 6.18 in the assay with LOX; 6.74 in the assay with HT29. For the same molecule, the VLB/OV3 with SKVLB is given as 4.81.
Turning to `C[C@@H]1O[C@@H](O[C@H]2O[C@H](COc3ccccc3)CC3=C2C(=O)c2cc4ccccc4c(O)c2C3=O)C[C@H](NC(=O)C(F)(F)F)[C@@H]1O` (mixture of isomers) [BCH-2048, (1'S,1R,3S) and (1'S,1S,3R)-5,12-dioxo-6-hydroxy-3-phenyloxymethyl-1-(2',3',6'-trideoxy-3'-trifluoroacetamido-L-lyxohexopyranose)-3,4,5,12-tetrahydroanthraceno-[2,3-c]-pyran], the pIC50 in the assay on SKOV3 was 5.36; in the assay on SKVLB, 4.99; in the assay on T47D (read-out: IC50), 5.24; in the assay with LOX it was 5.75; in the assay with HT29 (read-out: IC50), 5.20. Moreover, the VLB/OV3 in the assay on SKVLB was determined as 2.36.
Consider `C[C@@H]1O[C@@H](OC2OC(C#N)Cc3c(O)c4c(c(O)c32)C(=O)c2ccccc2C4=O)C[C@H](NC(=O)C(F)(F)F)[C@@H]1O` (mixture of isomers) [BCH-2055, (1'S,1R,3S) and (1'S,1S,3R)(5,12-Dihydroxy-1-(2',3',6'-trideoxy-3'-trifluoroacetamido-4'-hydroxy-L-lyxohexopyranose)-6,11-dioxo-3,4,5,12-tetrahydroanthraceno-[2,3-c]pyran-3-yl)nitrile], for which the negative logarithm of the IC50 (pIC50) with SKOV3 was 6.05; with SKVLB, 5.59; in the assay with T47D, 5.45; with LOX it was 5.95; in the assay on HT29 (read-out: IC50), 6.33. The VLB/OV3 in the assay on SKVLB is recorded as 2.85.
`C[C@@H]1O[C@@H](OC2OC(C#N)Cc3c(O)c4c(c(O)c32)C(=O)c2ccccc2C4=O)C[C@H](N)[C@@H]1O` (mixture of isomers) [BCH-2056, (1'S,1R,3S) and (1'S,1S,3R)(5,12-Dihydroxy-1-(2',3',6'-trideoxy-3'-amino-4'-hydroxy-L-lyxohexopyranose)-6,11-dioxo-3,4,5,12-tetrahydroanthraceno-[2,3-c]pyran-3-yl)nitrile]: the negative-log IC50 (pIC50) with SKOV3 was 6.77; with SKVLB, 6.22; with T47D (read-out: IC50) it was 6.57; in the assay with LOX, 6.77; in the assay on HT29 (read-out: IC50), 7.08. Also, the VLB/OV3 in the assay on SKVLB came to 3.50.
On to `C[C@@H]1O[C@@H](O[C@H]2O[C@H](COc3ccccc3)Cc3c(O)c4c(c(O)c32)C(=O)c2ccccc2C4=O)C[C@H](N)[C@@H]1O` (mixture of isomers) [BCH-2058, (1'S,1R,3S) and (1'S,1S,3R)-5,12-dihydroxy-3-phenyloxymethyl-1-(2',3',6'-trideoxy-3'-amino-L-lyxohexopyranose)-1,2,3,4-tetrahydro-(2-oxygen)-naphthacene-6,11-dione-hydrochloride], for which the pIC50 in the assay on SKOV3 is 6.41; in the assay with SKVLB, 6.39; with T47D (read-out: IC50) it was 6.31; in the assay with LOX, 6.65; with HT29 (read-out: IC50) it was 6.79. In the assay with SKVLB, the VLB/OV3 stood at 1.04.
On to `C[C@@H]1O[C@@H](O[C@@H]2O[C@@H](COc3ccccc3)Cc3c(O)c4c(c(O)c32)C(=O)c2ccccc2C4=O)C[C@H](N)[C@@H]1O` (mixture of isomers) [BCH-2059, (1'S,1R,3S) and (1'S,1S,3R)-5,12-dihydroxy-3-phenyloxymethyl-1-(2',3',6'-trideoxy-3'-amino-L-lyxohexopyranose)-1,2,3,4-tetrahydro-(2-oxygen)-naphthacene-6,11-dione-hydrochloride], for which the negative-log IC50 (pIC50) with SKOV3 is 6.61; in the assay with SKVLB, 6.51; in the assay with T47D (read-out: IC50), 6.35; in the assay with LOX, 6.68; with HT29 (read-out: IC50), 6.81. The VLB/OV3 in the assay on SKVLB is 1.24.
With `CC[C@@H]1CO[C@@H](O[C@H]2C[C@H](NC(=O)C(F)(F)F)[C@H](O)[C@H](C)O2)C2=C1C(=O)c1c(cc3ccccc3c1O)C2=O` (mixture of isomers) [BCH-2084, (1'S, 1S,4S) and (1'S,1R,4R)-5,12-dioxo-4-ethyl-6-hydroxy-1-(2',3',6'-trideoxy-3'-trifluoroacetamido-L-lyxohexopyranose)-3,4,5,12-tetrahydroanthraceno-[2,3-c]-pyran], the pIC50 was 5.38 in the assay on SKOV3; 4.92 in the assay with SKVLB; 5.25 in the assay with T47D (read-out: IC50); 5.28 with LOX; 5.24 in the assay on HT29 (read-out: IC50).
As to `CC[C@H]1CO[C@H](O[C@H]2C[C@H](N)[C@H](O)[C@H](C)O2)c2c(O)c3c(c(O)c21)C(=O)c1ccccc1C3=O` (mixture of isomers) [BCH-2085, (1'S,1S,4S) and (1'S,1R,4R)-5,12-dihydroxy-4-ethyl-1-(2',3',6'-trideoxy-3'-amino-L-lyxohexopyranose)-1,2,3,4-tetrahydro-(2-oxygen)-naphthacene-6,11-dione-hydrochloride], the pIC50 in the assay with SKOV3 is 5.96; in the assay with SKVLB, 5.47; in the assay on T47D (read-out: IC50) it was 5.80; in the assay with LOX, 6.24; with HT29 (read-out: IC50), 6.10.
Consider `CC(=O)CC1CC2=C(C(=O)c3cc4ccccc4c(O)c3C2=O)C(O[C@H]2C[C@H](NC(=O)C(F)(F)F)[C@H](O)[C@H](C)O2)O1` (mixture of isomers) [BCH-2097, (1'S,1R,3S) and (1'S,1S,3R)(6-hydroxy-1-(2',3',6'-trideoxy-3'-trifluoroacetamido-4'-hydroxy-L-lyxohexopyranose)-5,12-dioxo-3,4,5,12-tetrahydroanthraceno[2,3-c]pyran-3-yl)propanone], for which the pIC50 in the assay on SKOV3 is 5.22; with SKVLB, 5.27; in the assay on T47D (read-out: IC50), 5.35; with LOX it was 5.60; with HT29 (read-out: IC50), 5.58. Besides, in the assay with SKVLB, the VLB/OV3 is recorded as 0.88.
